From ChEMBL document CHEMBL1143229, “PB183, a sigma receptor ligand, as a potential PET probe for the imaging of prostate adenocarcinoma” (Bioorg Med Chem Lett, 2008)

Tests used:
[1] = Antiproliferative activity against mouse TRAMP cells; format: functional, cell-based
[2] = Displacement of [3H]DTG from mouse sigma-2 receptor in TRAMP cell membrane; format: cell membranes
[3] = target: Sigma non-opioid intracellular receptor 1 (Mus musculus, UniProt O55242); test: Displacement of (+)-[3H]pentazocine from mouse sigma 1 receptor in TRAMP cell membrane; format: cell membranes
[4] = Cytotoxicity against mouse TRAMP cells; format: functional, cell-based
[5] = Apparent permeability from apical to basolateral side of human Caco-2 cell membrane at pH 7.4 after 21 days; format: ADME, cell-based; settings: Caco-2, pH 7.4
[6] = Selectivity for sigma 2 receptor over sigma 1 receptor

Sigma non-opioid intracellular receptor 1, sequence (O55242 whole entry): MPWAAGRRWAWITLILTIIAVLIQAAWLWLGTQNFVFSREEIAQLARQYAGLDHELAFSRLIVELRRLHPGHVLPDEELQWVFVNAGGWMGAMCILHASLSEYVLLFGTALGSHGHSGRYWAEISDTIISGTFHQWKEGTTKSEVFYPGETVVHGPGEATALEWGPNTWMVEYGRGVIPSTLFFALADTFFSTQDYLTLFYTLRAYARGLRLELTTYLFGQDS

`COc1cccc2c(CCCN3CCN(C4CCCCC4)CC3)cccc12` gave an EC50 [1] of 16.9 µM, a Ki [2] of 0.5 nM and a Ki [3] of 6.5 nM. The EC50 [4] was 26.6 µM and the Papp A→B [5] was 6.3 ×10⁻⁶ cm/s.

Compound `COc1cccc2c1CCCC2CCCN1CCN(C2CCCCC2)CC1` (stereo unspecified) has a Selectivity ratio [6] of 40.
